Laboratory results as given in patent publication US20240051931A1, “HDAC INHIBITORS” (University of Pittsburgh - Of the Commonwealth System of …, priority 2020, published 2024).

How the values were obtained:
HDAC 6 = target: T1, HDAC 6 (Homo sapiens, UniProt Q9UBN7); test: HDAC 6 activity at fixed concentration (Table 2); assay type: biochemical; parameters: unit not given here; conditions: compound at 50 nM
T1 sequence (Q9UBN7 1-1215): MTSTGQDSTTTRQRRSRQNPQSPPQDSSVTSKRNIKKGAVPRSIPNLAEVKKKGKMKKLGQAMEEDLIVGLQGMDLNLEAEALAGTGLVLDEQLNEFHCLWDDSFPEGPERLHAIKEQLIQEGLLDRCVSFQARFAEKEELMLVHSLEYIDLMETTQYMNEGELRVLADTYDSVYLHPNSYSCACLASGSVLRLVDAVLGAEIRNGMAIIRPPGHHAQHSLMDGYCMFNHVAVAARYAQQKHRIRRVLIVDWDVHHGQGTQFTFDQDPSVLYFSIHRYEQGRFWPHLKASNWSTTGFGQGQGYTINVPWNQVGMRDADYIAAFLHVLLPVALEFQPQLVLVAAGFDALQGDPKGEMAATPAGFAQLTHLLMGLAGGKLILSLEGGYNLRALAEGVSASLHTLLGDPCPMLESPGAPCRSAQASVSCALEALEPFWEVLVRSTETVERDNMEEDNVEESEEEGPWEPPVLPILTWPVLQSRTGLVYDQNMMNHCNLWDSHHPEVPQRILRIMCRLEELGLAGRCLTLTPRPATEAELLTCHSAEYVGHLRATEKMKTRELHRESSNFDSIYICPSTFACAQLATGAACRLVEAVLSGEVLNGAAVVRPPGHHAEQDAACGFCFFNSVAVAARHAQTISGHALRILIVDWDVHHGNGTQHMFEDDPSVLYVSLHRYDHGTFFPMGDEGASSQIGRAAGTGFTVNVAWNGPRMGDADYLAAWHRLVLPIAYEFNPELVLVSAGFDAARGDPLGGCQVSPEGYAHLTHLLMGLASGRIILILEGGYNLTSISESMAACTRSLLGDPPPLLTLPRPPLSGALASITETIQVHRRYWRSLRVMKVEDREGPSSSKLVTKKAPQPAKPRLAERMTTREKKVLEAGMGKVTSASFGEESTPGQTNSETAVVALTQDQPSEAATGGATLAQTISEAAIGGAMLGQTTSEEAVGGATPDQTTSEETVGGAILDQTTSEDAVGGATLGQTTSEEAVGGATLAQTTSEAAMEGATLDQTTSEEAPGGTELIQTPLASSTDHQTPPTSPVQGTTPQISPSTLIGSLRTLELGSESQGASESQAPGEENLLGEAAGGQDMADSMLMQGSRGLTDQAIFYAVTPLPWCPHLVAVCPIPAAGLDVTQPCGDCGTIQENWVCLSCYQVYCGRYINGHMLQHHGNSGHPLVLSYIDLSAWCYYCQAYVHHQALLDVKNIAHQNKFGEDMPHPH

PanHDAC = PanHDAC activity at fixed concentration (Table 2); assay type: biochemical; parameters: unit not given here; conditions: compound at 1 uM

HDAC 6 at 50 nM (HDAC 6)	SMILES	PanHDAC at 1 uM (PanHDAC)
33	O=C(NO)C1CCc2cc(Cl)ccc2O1 (stereo not shown) [Compound 1-1]	0
5	O=C(NO)C1CCc2cccc(NS(=O)(=O)c3ccc(F)cc3)c2O1 (stereo not shown) [Compound 1-2]	0
46	O=C(NO)[C@@H]1CCc2ccccc2O1 [Compound 1-3]	0
47	O=C(NO)[C@H]1CCc2ccccc2O1 [Compound 1-4]	0
29	COc1ccc(C(=O)Nc2ccc3c(c2)CCC(C(=O)NO)O3)cc1 (stereo not shown) [Compound 1-5]	0
41	O=C(Nc1ccc2c(c1)CCC(C(=O)NO)O2)c1ccc(S(F)(F)(F)(F)F)cc1 (stereo not shown) [Compound 1-6]	0
35	O=C(NO)C1CCc2cc(CCCOc3ccc(F)cc3)ccc2O1 (stereo not shown) [Compound 1-7]	0
0	O=C(Nc1cccc2c1OC(C(=O)NO)CC2)OCc1ccccc1 (stereo not shown) [Compound 1-8]	0
50	O=C(Nc1ccc2c(c1)CCC(C(=O)NO)O2)OCc1ccccc1 (stereo not shown) [Compound 1-9]	0
42	O=C(NO)C1CCc2cc(C#CCOc3ccc(F)cc3)ccc2O1 (stereo not shown) [Compound 1-10]	0
25	C#Cc1ccc2c(c1)CCC(C(=O)NO)O2 (stereo not shown) [Compound 1-11]	3
28	O=C(NCc1ccccc1)Nc1cccc2c1OC(C(=O)NO)CC2 (stereo not shown) [Compound 1-12]	0
23	O=C(Nc1cccc2c1OC(C(=O)NO)CC2)OCc1ccccc1Cl (stereo not shown) [Compound 1-13]	0
0	O=C(NO)C1CCc2cc(NS(=O)(=O)c3cc(Cl)cc(Cl)c3)ccc2O1 (stereo not shown) [Compound 1-14]	21
26	O=C(NCc1ccc(Cl)c(C(F)(F)F)c1)Nc1ccc2c(c1)CCC(C(=O)NO)O2 (stereo not shown) [Compound 1-15]	0
73	O=C(NO)C1CCc2cc(CCCOC(=O)N3CCc4ccccc4C3)ccc2O1 (stereo not shown) [Compound 1-16]	0
40	O=C(NO)C1CCc2ccc(O)cc2O1 (stereo not shown) [Compound 1-17]	0
68	O=C(NO)C1CCc2cc(-c3ccc(F)cc3)ccc2O1 (stereo not shown) [Compound 1-18]	0
27	O=C(NO)C1CCc2cc(C#CCCC(=O)N3CCc4ccccc4C3)ccc2O1 (stereo not shown) [Compound 1-19]	0
32	O=C(NO)C1CCc2ccc(OCc3ccc(C(F)(F)F)cc3)cc2O1 (stereo not shown) [Compound 1-20]	0
73	O=C(NO)C1CCc2cc(-c3ccc(Cl)c(Cl)c3)ccc2O1 (stereo not shown) [Compound 1-21]	0
0	C[C@@H]1Cc2ccccc2O[C@@H]1C(=O)NO [Compound 1-22]	0
50	O=C(NO)C1CCc2cc(-c3ccc(-c4ccccc4)cc3)ccc2O1 (stereo not shown) [Compound 1-23]	0
23	O=C(NO)C1CCc2ccc(OCc3ccccn3)cc2O1 (stereo not shown) [Compound 1-24]	0
0	O=C(NO)C1CCc2ccc(OCCOc3ccc(F)cc3)cc2O1 (stereo not shown) [Compound 1-25]	0

HDAC 6 at 50 nM (HDAC 6)	SMILES	PanHDAC at 1 uM (PanHDAC)
20	O=C(Nc1ccc2c(c1)CC[C@@H](C(=O)NO)O2)c1cc(Cl)cc(Cl)c1 [Compound 1-26]	0
31	CN1CC(C(=O)NO)Oc2ccccc21 (stereo not shown) [Compound 1-27]	0
44	Cn1ccc2cc(-c3ccc4c(c3)CCC(C(=O)NO)O4)ccc21 (stereo not shown) [Compound 1-28]	0
37	CO[C@@H]1C[C@@H](C(=O)NO)Oc2ccccc21 [Compound 1-29]	0
29	CC(C)COC(=O)Nc1cccc2c1OC(C(=O)NO)CC2 (stereo not shown) [Compound 1-30]	0
41	O=C(NO)C1CCc2cccc(NS(=O)(=O)CC(F)(F)F)c2O1 (stereo not shown) [Compound 1-31]	0
70	COc1ccc(COC(=O)Nc2ccc3c(c2)CCC(C(=O)NO)O3)cc1 (stereo not shown) [Compound 1-32]	14
32	O=C(Nc1ccc2c(c1)CCC(C(=O)NO)O2)OCc1ccccc1Cl (stereo not shown) [Compound 1-33]	0
13	O=C(Nc1cccc2c1O[C@@H](C(=O)NO)CC2)OCc1ccccc1Cl [Compound 1-34]	0
0	O=C(NO)C1CCc2cccc(NS(=O)(=O)c3cccc4ccccc34)c2O1 (stereo not shown) [Compound 1-35]	0
6	O=C(NCCc1c[nH]c2ccccc12)Nc1cccc2c1OC(C(=O)NO)CC2 (stereo not shown) [Compound 1-36]	0
2	CS(=O)(=O)Nc1cccc2c1OC(C(=O)NO)CC2 (stereo not shown) [Compound 1-37]	6
21	Cc1ccc(S(=O)(=O)Nc2cccc3c2OC(C(=O)NO)CC3)cc1 (stereo not shown) [Compound 1-38]	0
34	O=C(NCc1cccc(S(F)(F)(F)(F)F)c1)Nc1cccc2c1OC(C(=O)NO)CC2 (stereo not shown) [Compound 1-39]	0
30	O=C(Nc1ccc(F)cc1)Nc1cccc2c1OC(C(=O)NO)CC2 (stereo not shown) [Compound 1-40]	0
55	O=C(Cc1c[nH]c2ccccc12)Nc1ccc2c(c1)CCC(C(=O)NO)O2 (stereo not shown) [Compound 1-41]	0
14	O=C(Nc1cccc2c1OC(C(=O)NO)CC2)OCc1ccc(C(F)(F)F)cc1 (stereo not shown) [Compound 1-42]	0
34	O=C(NCc1cccc(S(F)(F)(F)(F)F)c1)Nc1ccc2c(c1)CCC(C(=O)NO)O2 (stereo not shown) [Compound 1-43]	0
29	Cc1ccc(COc2ccc3c(c2)OC(C(=O)NO)CC3)cc1 (stereo not shown) [Compound 1-44]	0
0	O=C(COc1ccc(Cl)c(Cl)c1)Nc1cccc2c1OC(C(=O)NO)CC2 (stereo not shown) [Compound 1-45]	0
48	O=C(Nc1ccc(F)cc1)Nc1ccc2c(c1)CCC(C(=O)NO)O2 (stereo not shown) [Compound 1-46]	0
53	COc1ccccc1COc1ccc2c(c1)OC(C(=O)NO)CC2 (stereo not shown) [Compound 1-47]	0
0	O=C(NO)C1CCc2ccc(OCc3ccc(F)cc3)cc2O1 (stereo not shown) [Compound 1-48]	0
0	O=C(NO)C1CCc2ccc(OCCc3ccccc3)cc2O1 (stereo not shown) [Compound 1-49]	0
48	O=C(NO)C1CCc2ccc(OCc3ccc(Cl)cc3)cc2O1 (stereo not shown) [Compound 1-50]	0
